Where a name gives a salt, the structure may show the parent alone.
Each compound was assayed on serotonin (5-hydroxytryptamine (5HT)) uptake (assay: [^3 H]-Serotonin Uptake in Rat Whole Brain and Hypothalamic Synaptosomes). Conditions: [^3 H]-5HT 50 nM, 5 minutes, 37° C., log probit analysis.
Assay type: biochemical, rat (male Wistar)
Experimental: [^3 H]-Serotonin Uptake in Rat Whole Brain and Hypothalamic Synaptosomes
This activity is determined in an assay which measures [^3 H]-serotoninuptake in rat whole brain and hypothalamic synaptosomes. The assay described below is used as a biochemical screen for potential antidepressants which block serotonin (5-hydroxytryptamine (5HT)) uptake.
Male CR Wistar rats (100-125 g)
1. Krebs-Henseleit Bicarbonate Buffer, pH 7.4 (KHBB):
Prepare a 1 liter batch containing the following salts.
Prior to use add to 200 ml, per assay:
The batch is aerated for 60 minutes with 95% 02 /5% CO2, the pH is checked to insure it is at 7.4±0.1, then add bovine serum albumin (Sigma cat# A-7906) 1 mg/ml.
Make a 4 liter batch, containing the following salts:
3. Sucrose solution: 0.32M sucrose containing 5 mM HEPES and 0.1 mM EDTA; pH to 7.3 using Tris base.
4. A 0.1 mM stock solution of serotonin creatinine SO4 is made up in 0.01N HCl. This is used to dilute the specific activity of the radiolabeled 5HT.
5. 5-[1,2-^3 H(N)]-Hydroxytryptamine creatinine sulfate (serotonin), specific activity 20-30 Ci/mmol, is used.
The final desired concentration of [^3 H]-5HT in the assay is 50 nM. The dilution factor is 0.8. The KHBB is made up to contain 62.5 nM of [^3 H]-5HT.
6. For most assays, a 0.5 mM stock solution of the test compound is made up initially in either 10 μl of glacial acetic acid, 100 μl DMSO or 10 μl of the recrystallization solvent, to which is added approximately 10 ml of distilled water. Compounds are initially screened in duplicate at 3 concentrations (10^-8, 10^-7 and 10^-6 M) made up in water.
The Percoll method for preparing synaptosomes has been modified from Nagy, A., Delgado-Escueta, A. V. J. Neurochem. 43, 1114 (1984) and Dunkley, P. R., Jarvie, R. E., Heath, J. W., Kidd, G. J., Rostas, J. A. P. Brain Research 372, 115 (1986). Male Wistar rats are decapitated and the brain rapidly removed. Whole brain (minus cerebellum) is weighed and homogenized in 15 volumes of ice cold Sucrose solution using a Potter-Elvejhem homogenizer. The following procedures are performed on ice. Homogenization should be done with 4-5 up and down strokes at medium speeds (setting 4.5 to 5) to minimize synaptosome lysis. The homogenate is centrifuged at 1000 g (3000 rpm, Sorvall SS-34 rotor) for 10 minutes at 0°-4° C. The supernatant is removed and approximately 10 ml per tube is carefully layered onto a discontinuous Percoll (Sigma cat# P-1644) gradient: 21% Percoll in Sucrose solution at the bottom (15 ml per tube) and 10% Percoll in the middle ( 10 ml; colored with a few drops of phenol red for visibility).
The Percoll gradient tubes are carefully placed into a Beckman SW-28 swinging bucket rotor and spun in a Beckman XL90 ultracentrifuge using the following program: speed, 11,000 rpm (15,000 g) for 30 minutes at 4° C.; slow acceleration and deceleration (acceleration setting 9; deceleration setting 3). Tubes are carefully removed, and the top layer and the top part of the middle (red) layer are discarded using a pasteur pipette. The synaptosomes are located in the white fluffy band at the interface between the 10% and 21% Percoll layers. This is carefully removed, placed in a centriguge tube, diluted with KHBB and spun at 21,000 g (13,000 rpm, Sorvall SS-34 rotor). The pellet (synaptosomes) is resuspended in KHBB (10 vol per gram original brain wet weight; 1 brain minus cerebellum weighs approximately 1.2 g; 2.5 brains are needed per typical assay).
200 μl of the tissue suspension are added to each of 24 tubes (at a time) containing the 20 μl of vehicle or drug on ice. Three minutes later, 800 μl of KHBB containing [^3 H]-5HT are added, and the tubes are vortexed. The rack containing the 24 tubes is moved from the ice bath to a water bath set at 37° C. The tubes are incubated for 5 minutes under 95% O2 /5% CO2.
With `Cc1ccccc1-c1nn(CCN)c2ccncc12` [1-(2-aminoethyl)-3-(2-methylphenyl)-1H-pyrazolo[4,3-c]pyridine] the IC50 was 870 nM. With `NCCCCn1nc(-c2ccc(Cl)cc2Cl)c2cnccc21` [1-(4-aminobutyl)-3-(2,4-dichlorophenyl)-1H-pyrazolo[4,3-c]pyridine dimaleate] the IC50 was 95 nM. In the case of `NCCn1nc(-c2ccccc2Br)c2cnccc21` [Example 2A, 1-(2-aminoethyl)-3-(2-bromophenyl)-1H-pyrazolo[4,3-c]pyridine dihydrochloride], the IC50 is reported as 1530 nM. `NCCn1nc(-c2cccc(Cl)c2Cl)c2cnccc21` [Example 2CC, 1-(2-aminoethyl)-3-(2,3-dichlorophenyl)-1H-pyrazolo[4,3-c]pyridine fumarate] gave an IC50 of 210 nM. `NCCCn1nc(-c2ccc(Cl)cc2)c2cnccc21` [Example 2D, 1-[3-aminopropyl]-3-(4-chlorophenyl)-1H-pyrazolo[4,3-c]pyridine dimaleate] gave an IC50 of 770 nM. `NCCCn1nc(-c2cccc(Cl)c2Cl)c2cnccc21` [Example 2DD, 1-(3-aminopropyl)-3-(2,3-dichlorophenyl)-1H-pyrazolo[4,3-c]pyridine fumarate] was tested, and the IC50 was 410 nM. Work on `NCCn1nc(-c2ccc(Cl)c(Cl)c2Cl)c2cnccc21` [Example 2EE, 1-(2-aminoethyl)-3-(2,3,4-trichlorophenyl)-1H-pyrazolo[4,3-c]pyridine fumarate] yielded an IC50 of 49 nM. `NCCCn1nc(-c2ccc(Cl)c(Cl)c2Cl)c2cnccc21` [Example 2FF, 1-(3-aminopropyl)-3-(2,3,4-trichlorophenyl)-1H-pyrazolo[4,3-c]pyridine fumarate] was tested, and the IC50 was 23 nM. `NCCn1nc(-c2ccc(Br)cc2)c2cnccc21` [Example 2H, 1-(2-aminoethyl)-3-(4-bromophenyl)-1H-pyrazolo[4,3-c]pyridine] gave an IC50 of 940 nM. `NCCCn1nc(-c2ccc(Cl)c(Cl)c2)c2cnccc21` [Example 2K, 1-(3-aminopropyl)-3-3,4-dichlorophenyl)-1H-pyrazolo[4,3-c]pyridine maleate] showed an IC50 of 240 nM. Compound `NCCn1nc(-c2ccc(Cl)c(Cl)c2)c2cnccc21` [Example 2L, 1-(2-aminoethyl)-3-(3,4-dichlorophenyl)-1H-pyrazolo[4,3-c]pyridine maleate] has an IC50 of 210 nM. `NCCn1nc(-c2ccc(C(F)(F)F)cc2)c2cnccc21` [Example 2Q, 1-(2-aminoethyl)-3-(4-trifluoromethylphenyl)-1H-pyrazolo[4,3-c]pyridine maleate] gave an IC50 of 1240 nM. Work on `NCCn1nc(-c2ccc(Cl)cc2Cl)c2cnccc21` [Example 2S, 1-(2-amimoethyl)-3-(2,4-dichlorophenyl)-1H-pyrazolo[4,3-c]pyridine fumarate] yielded an IC50 of 58 nM.

Source: patent US5296491A, “Pyrazolo[4,3-c]pyridines and their use as serotonin reuptake inhibitors” (Hoechst-Roussel Pharmaceuticals Inc., priority 1993, dated 1994)
